Values joined by “and” are separate entries in the source; they are usually repeats but may differ in a detail not shown here. Equal entries are not always repeated.
Columns and labels:
[1] = molecular target: T1, Arginase-2, mitochondrial (Homo sapiens, UniProt P78540); test: in vitro enzyme assay to detect the production of urea directly proportional to the activity of Arginase II; assay type: functional
T1 sequence (P78540 whole entry): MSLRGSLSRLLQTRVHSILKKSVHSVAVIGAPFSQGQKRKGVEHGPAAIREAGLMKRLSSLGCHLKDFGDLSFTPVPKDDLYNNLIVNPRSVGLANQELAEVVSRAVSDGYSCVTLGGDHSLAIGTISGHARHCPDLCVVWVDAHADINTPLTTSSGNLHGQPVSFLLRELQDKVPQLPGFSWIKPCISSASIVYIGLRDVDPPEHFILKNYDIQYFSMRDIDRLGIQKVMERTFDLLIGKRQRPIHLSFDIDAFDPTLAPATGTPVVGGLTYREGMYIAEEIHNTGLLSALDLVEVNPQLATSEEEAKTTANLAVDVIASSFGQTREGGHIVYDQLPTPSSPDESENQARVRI

Plasmodium falciparum = test: Plasmodium falciparum sporozoite viability assay; assay type: functional, organism-based
Proteasome subunit beta = molecular target: T2, Proteasome subunit beta (Trypanosoma cruzi, UniProt O96673); test: Trypanosoma cruzi proteasome chymotrypsin-like activity (TcProtChymo) assay.; assay type: functional
T2 sequence (O96673 whole entry): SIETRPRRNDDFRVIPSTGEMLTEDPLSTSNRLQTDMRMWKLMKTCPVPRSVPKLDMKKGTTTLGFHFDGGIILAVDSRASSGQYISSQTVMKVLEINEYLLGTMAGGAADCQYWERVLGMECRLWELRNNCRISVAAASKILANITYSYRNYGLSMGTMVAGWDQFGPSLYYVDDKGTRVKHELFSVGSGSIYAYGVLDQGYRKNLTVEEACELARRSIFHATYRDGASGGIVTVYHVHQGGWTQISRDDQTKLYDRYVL

[2] = Trypanosoma cruzi proteasome luciferase counter-screen; assay type: functional, N/A
Lysine--tRNA ligase = Lysine--tRNA ligase (Plasmodium falciparum (isolate 3D7), UniProt Q8IDJ8); test: Pf-KRS-1 (Lysyl-RNA Synthetase-1, KRS-1, cytosolic KRS) from Plasmodium falciparum. Inhibitor assay, 384 well plate, luminescence read.; assay type: functional
Chain of Lysine--tRNA ligase (Q8IDJ8 whole entry): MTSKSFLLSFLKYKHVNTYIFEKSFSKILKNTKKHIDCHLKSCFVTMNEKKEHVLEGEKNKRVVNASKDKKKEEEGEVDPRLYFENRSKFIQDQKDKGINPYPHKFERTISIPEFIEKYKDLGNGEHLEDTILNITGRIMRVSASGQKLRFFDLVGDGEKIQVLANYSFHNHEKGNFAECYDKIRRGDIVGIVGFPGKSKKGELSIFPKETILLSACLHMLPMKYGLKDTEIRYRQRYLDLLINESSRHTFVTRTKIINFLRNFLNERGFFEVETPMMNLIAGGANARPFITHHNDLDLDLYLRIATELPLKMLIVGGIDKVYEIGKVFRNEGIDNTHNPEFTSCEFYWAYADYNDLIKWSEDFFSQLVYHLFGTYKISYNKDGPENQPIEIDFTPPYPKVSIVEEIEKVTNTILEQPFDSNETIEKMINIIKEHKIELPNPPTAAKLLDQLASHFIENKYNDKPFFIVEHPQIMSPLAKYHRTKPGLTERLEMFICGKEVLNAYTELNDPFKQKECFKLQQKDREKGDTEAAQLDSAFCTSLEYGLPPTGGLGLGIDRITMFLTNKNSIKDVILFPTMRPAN

[3] = microbe, parasite or virus in culture; conditions: Mycobacterium tuberculosis, 96 h, read-out: pIC50 (converted)
[4] = microbe, parasite or virus in culture; conditions: Mycobacterium tuberculosis, 72 h, read-out: pIC50 (converted)
[5] = molecular target: T3, Coenzyme A biosynthesis bifunctional protein CoaBC (Mycobacterium tuberculosis (strain ATCC 25618 / H37Rv), UniProt P9WNZ1); test: Biomol Green assay for MtCoaBC inhibitor, OD650 read; assay type: functional
T3 sequence (P9WNZ1 whole entry): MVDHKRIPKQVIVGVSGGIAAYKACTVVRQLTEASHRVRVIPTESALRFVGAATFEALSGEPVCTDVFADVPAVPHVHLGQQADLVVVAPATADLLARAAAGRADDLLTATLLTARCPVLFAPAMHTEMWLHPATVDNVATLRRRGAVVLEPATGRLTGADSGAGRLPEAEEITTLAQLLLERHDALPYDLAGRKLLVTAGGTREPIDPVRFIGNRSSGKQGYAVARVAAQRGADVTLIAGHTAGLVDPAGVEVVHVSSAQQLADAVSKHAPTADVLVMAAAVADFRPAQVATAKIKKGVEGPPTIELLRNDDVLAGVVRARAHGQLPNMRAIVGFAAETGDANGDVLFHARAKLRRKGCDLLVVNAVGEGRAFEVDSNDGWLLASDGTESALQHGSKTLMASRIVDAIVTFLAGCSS

Histidine--tRNA ligase = molecular target: T4, Histidine--tRNA ligase (Leishmania infantum, UniProt A4I591); test: Leishmania infantum Histidine tRNA synthetase (LdHisRS); assay type: functional
T4 sequence (A4I591 whole entry): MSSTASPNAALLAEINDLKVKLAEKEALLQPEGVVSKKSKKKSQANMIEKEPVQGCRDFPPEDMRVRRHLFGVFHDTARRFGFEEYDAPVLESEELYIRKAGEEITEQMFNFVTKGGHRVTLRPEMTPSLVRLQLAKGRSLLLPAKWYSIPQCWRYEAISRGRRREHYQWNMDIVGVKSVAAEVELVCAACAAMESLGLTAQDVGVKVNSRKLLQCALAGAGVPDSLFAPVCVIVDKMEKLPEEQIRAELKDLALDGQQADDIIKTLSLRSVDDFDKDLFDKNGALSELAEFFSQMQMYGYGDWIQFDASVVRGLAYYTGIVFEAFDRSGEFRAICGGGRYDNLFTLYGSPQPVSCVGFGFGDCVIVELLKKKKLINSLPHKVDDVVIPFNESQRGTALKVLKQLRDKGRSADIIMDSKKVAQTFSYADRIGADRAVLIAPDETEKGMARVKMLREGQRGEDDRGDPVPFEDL

[6] = molecular target: Chromo domain-containing protein 1 (Saccharomyces cerevisiae (strain ATCC 204508 / S288c) (Baker's yeast), UniProt P32657); test: ScCHD-1 Enzyme Inhibition Assay; assay type: functional
Chain of Chromo domain-containing protein 1 (P32657 whole entry, the tested form may be a part): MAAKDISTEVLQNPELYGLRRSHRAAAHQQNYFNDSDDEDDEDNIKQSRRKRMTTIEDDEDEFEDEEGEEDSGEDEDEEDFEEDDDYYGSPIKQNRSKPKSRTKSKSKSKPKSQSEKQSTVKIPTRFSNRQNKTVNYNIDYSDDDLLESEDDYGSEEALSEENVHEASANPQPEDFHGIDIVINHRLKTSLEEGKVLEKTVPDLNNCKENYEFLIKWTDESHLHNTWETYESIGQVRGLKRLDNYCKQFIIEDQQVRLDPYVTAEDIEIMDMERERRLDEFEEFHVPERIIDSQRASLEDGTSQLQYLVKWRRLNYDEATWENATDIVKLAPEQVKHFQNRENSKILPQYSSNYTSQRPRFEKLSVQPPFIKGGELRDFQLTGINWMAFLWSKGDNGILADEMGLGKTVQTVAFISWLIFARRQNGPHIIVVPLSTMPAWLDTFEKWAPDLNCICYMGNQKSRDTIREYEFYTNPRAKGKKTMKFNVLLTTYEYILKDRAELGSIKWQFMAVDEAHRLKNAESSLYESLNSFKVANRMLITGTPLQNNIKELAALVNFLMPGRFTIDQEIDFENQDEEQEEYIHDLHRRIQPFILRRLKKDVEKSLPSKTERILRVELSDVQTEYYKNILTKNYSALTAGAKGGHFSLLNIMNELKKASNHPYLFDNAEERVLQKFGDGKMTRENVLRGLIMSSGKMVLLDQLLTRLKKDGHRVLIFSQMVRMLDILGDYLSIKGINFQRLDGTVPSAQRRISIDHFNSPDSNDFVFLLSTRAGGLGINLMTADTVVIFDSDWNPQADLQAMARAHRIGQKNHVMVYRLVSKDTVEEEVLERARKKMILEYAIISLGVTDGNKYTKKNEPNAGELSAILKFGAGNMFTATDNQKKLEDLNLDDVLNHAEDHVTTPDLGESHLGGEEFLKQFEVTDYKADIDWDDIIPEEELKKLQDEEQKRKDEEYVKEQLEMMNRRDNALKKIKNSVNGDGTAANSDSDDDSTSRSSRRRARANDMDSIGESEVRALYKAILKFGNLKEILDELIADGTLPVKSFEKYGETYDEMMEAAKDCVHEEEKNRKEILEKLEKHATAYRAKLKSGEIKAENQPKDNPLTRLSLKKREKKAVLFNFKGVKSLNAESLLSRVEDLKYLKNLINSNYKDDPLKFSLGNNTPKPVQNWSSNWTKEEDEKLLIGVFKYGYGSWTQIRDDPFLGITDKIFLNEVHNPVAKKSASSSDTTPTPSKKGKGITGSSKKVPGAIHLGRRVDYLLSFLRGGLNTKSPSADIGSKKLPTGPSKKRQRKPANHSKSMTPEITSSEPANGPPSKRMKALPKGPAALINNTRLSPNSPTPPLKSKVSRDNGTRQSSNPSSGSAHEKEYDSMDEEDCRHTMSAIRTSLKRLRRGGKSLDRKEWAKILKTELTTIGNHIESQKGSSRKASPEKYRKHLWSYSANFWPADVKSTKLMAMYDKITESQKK

[7] = molecular target: Polyketide synthase Pks13 (Mycobacterium tuberculosis (strain ATCC 25618 / H37Rv), UniProt I6X8D2); test: Mycobacterium tuberculosis Polyketide synthase 13 Thioesterase (PKS13); assay type: functional
Chain of Polyketide synthase Pks13 (I6X8D2 whole entry): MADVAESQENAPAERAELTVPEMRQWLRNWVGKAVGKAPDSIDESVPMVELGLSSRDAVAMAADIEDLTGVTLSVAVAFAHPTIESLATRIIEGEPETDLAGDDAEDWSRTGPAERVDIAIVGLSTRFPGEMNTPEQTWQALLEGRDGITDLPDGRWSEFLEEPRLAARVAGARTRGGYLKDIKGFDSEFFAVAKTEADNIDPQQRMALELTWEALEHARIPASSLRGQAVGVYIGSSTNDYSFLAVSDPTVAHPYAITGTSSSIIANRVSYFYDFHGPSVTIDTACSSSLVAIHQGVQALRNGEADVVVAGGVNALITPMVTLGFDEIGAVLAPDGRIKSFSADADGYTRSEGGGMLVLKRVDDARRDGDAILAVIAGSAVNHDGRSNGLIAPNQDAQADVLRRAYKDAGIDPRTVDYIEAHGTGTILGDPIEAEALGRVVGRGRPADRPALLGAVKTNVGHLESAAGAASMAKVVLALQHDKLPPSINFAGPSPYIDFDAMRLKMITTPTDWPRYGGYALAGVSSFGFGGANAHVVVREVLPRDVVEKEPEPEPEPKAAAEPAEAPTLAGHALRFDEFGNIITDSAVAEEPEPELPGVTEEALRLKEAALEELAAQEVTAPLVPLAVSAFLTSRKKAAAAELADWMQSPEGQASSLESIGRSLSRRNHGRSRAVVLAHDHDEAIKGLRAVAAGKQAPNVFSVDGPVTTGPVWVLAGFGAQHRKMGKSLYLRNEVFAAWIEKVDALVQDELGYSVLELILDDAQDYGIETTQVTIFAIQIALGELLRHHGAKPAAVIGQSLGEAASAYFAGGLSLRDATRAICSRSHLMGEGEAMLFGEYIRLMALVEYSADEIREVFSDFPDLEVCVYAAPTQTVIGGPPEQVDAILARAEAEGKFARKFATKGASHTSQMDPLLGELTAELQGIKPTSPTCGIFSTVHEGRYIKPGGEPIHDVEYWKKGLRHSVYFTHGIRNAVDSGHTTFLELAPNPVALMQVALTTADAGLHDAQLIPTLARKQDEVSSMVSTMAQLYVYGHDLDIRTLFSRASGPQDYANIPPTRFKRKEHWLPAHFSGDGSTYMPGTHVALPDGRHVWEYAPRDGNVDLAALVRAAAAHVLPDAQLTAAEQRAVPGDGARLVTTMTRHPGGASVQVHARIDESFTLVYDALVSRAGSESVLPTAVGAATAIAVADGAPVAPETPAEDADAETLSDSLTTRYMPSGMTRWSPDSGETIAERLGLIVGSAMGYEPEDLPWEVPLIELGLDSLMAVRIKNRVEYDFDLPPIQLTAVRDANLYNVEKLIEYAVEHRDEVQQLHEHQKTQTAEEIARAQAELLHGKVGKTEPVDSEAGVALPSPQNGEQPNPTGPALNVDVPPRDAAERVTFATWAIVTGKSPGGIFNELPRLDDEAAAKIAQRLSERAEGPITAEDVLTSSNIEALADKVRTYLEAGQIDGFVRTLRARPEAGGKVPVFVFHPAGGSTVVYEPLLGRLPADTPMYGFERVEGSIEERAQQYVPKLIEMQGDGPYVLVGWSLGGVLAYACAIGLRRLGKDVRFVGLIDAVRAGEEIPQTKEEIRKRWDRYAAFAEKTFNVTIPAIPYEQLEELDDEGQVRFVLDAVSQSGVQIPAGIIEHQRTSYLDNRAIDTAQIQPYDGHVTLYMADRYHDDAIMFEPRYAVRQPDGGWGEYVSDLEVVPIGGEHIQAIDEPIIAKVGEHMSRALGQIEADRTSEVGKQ

Schistosoma mansoni = test: High throughput screening of compounds against Schistosoma mansoni motility; assay type: functional; parameters: dose or concentration left out as unconfirmed

Row | Compound | IC50 [1] | further results
1 | O=C(NCc1ccccn1)[C@]12COC[C@H]1CN(C1CCC1)C2 | > 100 µM | –
2 | COCc1noc(-c2ccc(N3CCCCC3CO)nc2)n1 (stereo not drawn) | – | pIC50 (Plasmodium falciparum): 7.545; IC50 (Plasmodium falciparum; Plasmodium falciparum): 29.3 nM; IC50 (Proteasome subunit beta): 8.74 µM and 8.62 µM; pIC50 [2]: 4.522 and 4.491
3 | CN(C)c1ncc(CN2CCOC(C(=O)Nc3ccccc3)C2)cn1 (stereo not drawn) | > 100 µM | –
4 | Cc1nn(CCO)c(C)c1CNC1CCc2c(Cl)cccc21 (stereo not drawn) | > 100 µM | –
5 | COc1cccc(CNCc2nnc3n2CC(C(F)(F)F)CC3)c1 (stereo not drawn) | > 100 µM | –
6 | Cc1nc(CCNC(=O)N2CCC(Cc3cnn(C)c3)C2)cs1 (stereo not drawn) | > 100 µM | –
7 | Cc1ccc([C@@H]2CN(S(=O)(=O)N(C)C)C[C@H]2N(C)C)cc1 | > 100 µM | –
8 | O=c1[nH]c2c(c(=O)n1C1CCCCC1)CCC2Nc1ccccc1Cl (stereo not drawn) | > 100 µM | IC50 (Lysine--tRNA ligase): 14 µM
9 | CCN(C)c1ccc(C(=O)N(CCOC)Cc2ccccn2)cc1 | > 100 µM | –
10 | COc1ccc(-c2nc(CN3CC(n4cc(C)cn4)C3)no2)cc1 | > 100 µM | IC50 [3]: 39.7 µM; IC50 [4]: 47 µM
11 | Cc1cnn(C2CN(CC(=O)NCc3ccccn3)C2)c1 | – | IC50 [5]: > 30.2 µM; IC50 (Proteasome subunit beta): 14.9 µM and 19.7 µM; pIC50 [2]: < 4; IC50 (Histidine--tRNA ligase): > 100 µM
12 | O=C(COc1cccc(Br)c1)N1CCN(c2nccs2)CC1 | > 100 µM | IC50 [6]: > 29.5 µM
13 | Cc1cc(CNC(=O)N2CCN(c3nc(C)c(C)s3)CC2)no1 | > 100 µM | –
14 | O=C(Cn1nc2c(cc1=O)CSCC2)NC(Cc1ccccc1)C(=O)O (stereo not drawn) | > 100 µM | –
15 | CS(=O)(=O)NCC(=O)N1CCCC1c1noc(C2CC2)n1 (stereo not drawn) | > 100 µM | –
16 | Cc1ncsc1CCC(=O)N1CCCC[C@H](N(C)C)C1 | > 100 µM | –
17 | C[S+]([O-])CCCNC(=O)c1cc(Br)c2c(c1)OCCO2 (stereo not drawn) | > 100 µM | –
18 | CSc1ccccc1C(C(=O)O)N1CCN(Cc2ccccn2)CC1 (stereo not drawn) | > 100 µM | –
19 | Cc1cnc(CN(Cc2ccccc2)CC(O)c2cccs2)cn1 (stereo not drawn) | > 100 µM | –
20 | COC(=O)Cn1cccc(S(=O)(=O)N2CCC(C)CC2)c1=O | > 100 µM | IC50 [7]: > 100 µM
21 | COc1ccccc1Oc1ncccc1CNC(=O)C(C)N1CCCC1 (stereo not drawn) | > 100 µM | Percent Effect (Schistosoma mansoni): 13.35%
22 | CN(CCO)C(=O)c1coc(CN2CCN(c3ccccc3F)CC2)n1 | > 100 µM | IC50 [6]: > 29.5 µM
23 | O=C(NCc1ccncc1)N(Cc1ccccc1F)C1CC1 | > 100 µM | –
24 | CC(C)CN1CCC(NC(=O)c2ccc(F)cc2I)CC1 | > 100 µM | Percent Effect (Schistosoma mansoni): 28.14%

— ChEMBL document CHEMBL3988442, “University of Dundee, Small-Polar-MMV Screening Library” (2021)
